How the values were obtained:
Type in all cases: biochemical
Aminopeptidase [1] = assay: Inhibition of aminopeptidase from monkey brain (substrate enkephalin)
Dipeptidylaminopeptidase [2] = assay: Inhibition of dipeptidylaminopeptidase from monkey brain (substrate enkephalin)
Carboxypeptidase [3] = assay: Inhibition of carboxypeptidase from bovine longitudinal muscle (substrate Hip-L-PheAla); details: for inhibition rate, Carboxypeptidase: principal ingredient 1 μg/1 ml
Description: (§1) (1) As described above, the inhibitor of the present invention has a strong effect of inhibiting the action of the opioid peptide-degrading enzyme. […] On the other hand, however, some opioid peptides released in vivo when such narcotic substances are given and opioid peptide-degrading enzymes have been known. Accordingly, the effects of the products of the present invention were judged from inhibition rates realized when the products were allowed to act on the opioid peptide-degrading enzyme in the presence of the opioid peptide in vitro.
(§2) In the tests, the product of the invention was added to an opioid peptide such as enkephalin or its model compound. After an incubation effected for a given time, the inhibition rates of the product against the opioid peptide-degrading enzyme were examined. Various opioid peptides were used.
(§3) The opioid peptide-degrading enzymes derived from bovine longitudinal muscle used in the above examples were purified partially by a process of Goreustein and Snyder S. H., ["Life Sci." 25, 2065 (1979)]. The inhibition effects of the compounds of the present invention on the opioid peptide-degrading enzymes were determined by a process of T. Hazato, M. Shimamura, T. Katayama and T. Yamamoto [B.B.R.C. 105, 470-475 (1982)] (for dipeptidylaminopeptidase), a process of M. Shimamura, T. Hazato and T. Katayama [B.B.A., 756, 223-229 (1983)] (for aminopeptidase) and analogous processes.

[4] = biological target: T1, angiotensin converting enzyme (Rattus norvegicus, UniProt P47820); assay: Inhibition of angiotensin converting enzyme from rat lung; details: substrate Hip--His--L-Lue
T1 construct: lung; from tissue; host or cells: rat lung
T1 sequence (P47820 36-1313): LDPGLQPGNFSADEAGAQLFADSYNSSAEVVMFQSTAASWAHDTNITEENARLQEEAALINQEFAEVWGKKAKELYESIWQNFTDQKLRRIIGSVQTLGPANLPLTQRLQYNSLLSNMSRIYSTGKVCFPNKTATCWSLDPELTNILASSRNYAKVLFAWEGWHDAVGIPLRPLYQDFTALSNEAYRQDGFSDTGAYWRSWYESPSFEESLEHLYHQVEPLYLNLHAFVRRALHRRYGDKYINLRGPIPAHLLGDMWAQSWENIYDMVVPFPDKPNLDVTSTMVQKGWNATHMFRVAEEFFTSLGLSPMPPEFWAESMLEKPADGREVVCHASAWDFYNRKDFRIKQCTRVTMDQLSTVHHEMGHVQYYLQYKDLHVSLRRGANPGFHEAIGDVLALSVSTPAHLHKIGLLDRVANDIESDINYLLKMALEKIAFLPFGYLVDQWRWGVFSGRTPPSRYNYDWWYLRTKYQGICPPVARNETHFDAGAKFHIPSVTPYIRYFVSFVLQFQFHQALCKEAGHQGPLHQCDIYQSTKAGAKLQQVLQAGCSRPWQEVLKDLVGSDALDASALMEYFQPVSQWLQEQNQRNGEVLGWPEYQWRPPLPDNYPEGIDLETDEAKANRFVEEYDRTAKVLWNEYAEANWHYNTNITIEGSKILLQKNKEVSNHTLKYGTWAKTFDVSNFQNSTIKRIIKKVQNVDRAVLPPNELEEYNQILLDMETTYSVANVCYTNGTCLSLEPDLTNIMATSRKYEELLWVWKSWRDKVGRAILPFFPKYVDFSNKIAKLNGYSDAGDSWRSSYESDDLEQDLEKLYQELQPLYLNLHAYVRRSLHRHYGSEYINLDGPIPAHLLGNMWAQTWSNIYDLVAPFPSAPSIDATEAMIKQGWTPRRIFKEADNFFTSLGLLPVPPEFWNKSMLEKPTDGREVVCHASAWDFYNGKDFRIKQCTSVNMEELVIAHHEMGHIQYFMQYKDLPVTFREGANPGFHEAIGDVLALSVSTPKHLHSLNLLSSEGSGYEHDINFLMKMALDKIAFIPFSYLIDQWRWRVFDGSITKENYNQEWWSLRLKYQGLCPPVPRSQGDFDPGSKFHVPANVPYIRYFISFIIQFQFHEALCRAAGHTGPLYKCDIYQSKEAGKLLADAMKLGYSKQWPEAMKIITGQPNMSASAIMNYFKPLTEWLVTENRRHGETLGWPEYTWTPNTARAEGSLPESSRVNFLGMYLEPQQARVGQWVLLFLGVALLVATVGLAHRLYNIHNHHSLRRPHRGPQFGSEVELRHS

[5] = biological target: Angiotensin converting enzyme; assay: Inhibition of angiotensin converting enzyme from monkey brain; details: substrate Hip--His--L-Lue
[6] = biological target: T2, Dipeptidylcarboxypeptidase (Bos taurus, UniProt P12820); assay: Inhibition of dipeptidylcarboxypeptidase from bovine longitudinal muscle (substrate Hip-His-Leu)
T2 construct: derived from bovine longitudinal muscle; from tissue; host or cells: bovine longitudinal muscle, partially purified (Gorenstein and Snyder 1979)
T2 sequence (P12820 29-1306): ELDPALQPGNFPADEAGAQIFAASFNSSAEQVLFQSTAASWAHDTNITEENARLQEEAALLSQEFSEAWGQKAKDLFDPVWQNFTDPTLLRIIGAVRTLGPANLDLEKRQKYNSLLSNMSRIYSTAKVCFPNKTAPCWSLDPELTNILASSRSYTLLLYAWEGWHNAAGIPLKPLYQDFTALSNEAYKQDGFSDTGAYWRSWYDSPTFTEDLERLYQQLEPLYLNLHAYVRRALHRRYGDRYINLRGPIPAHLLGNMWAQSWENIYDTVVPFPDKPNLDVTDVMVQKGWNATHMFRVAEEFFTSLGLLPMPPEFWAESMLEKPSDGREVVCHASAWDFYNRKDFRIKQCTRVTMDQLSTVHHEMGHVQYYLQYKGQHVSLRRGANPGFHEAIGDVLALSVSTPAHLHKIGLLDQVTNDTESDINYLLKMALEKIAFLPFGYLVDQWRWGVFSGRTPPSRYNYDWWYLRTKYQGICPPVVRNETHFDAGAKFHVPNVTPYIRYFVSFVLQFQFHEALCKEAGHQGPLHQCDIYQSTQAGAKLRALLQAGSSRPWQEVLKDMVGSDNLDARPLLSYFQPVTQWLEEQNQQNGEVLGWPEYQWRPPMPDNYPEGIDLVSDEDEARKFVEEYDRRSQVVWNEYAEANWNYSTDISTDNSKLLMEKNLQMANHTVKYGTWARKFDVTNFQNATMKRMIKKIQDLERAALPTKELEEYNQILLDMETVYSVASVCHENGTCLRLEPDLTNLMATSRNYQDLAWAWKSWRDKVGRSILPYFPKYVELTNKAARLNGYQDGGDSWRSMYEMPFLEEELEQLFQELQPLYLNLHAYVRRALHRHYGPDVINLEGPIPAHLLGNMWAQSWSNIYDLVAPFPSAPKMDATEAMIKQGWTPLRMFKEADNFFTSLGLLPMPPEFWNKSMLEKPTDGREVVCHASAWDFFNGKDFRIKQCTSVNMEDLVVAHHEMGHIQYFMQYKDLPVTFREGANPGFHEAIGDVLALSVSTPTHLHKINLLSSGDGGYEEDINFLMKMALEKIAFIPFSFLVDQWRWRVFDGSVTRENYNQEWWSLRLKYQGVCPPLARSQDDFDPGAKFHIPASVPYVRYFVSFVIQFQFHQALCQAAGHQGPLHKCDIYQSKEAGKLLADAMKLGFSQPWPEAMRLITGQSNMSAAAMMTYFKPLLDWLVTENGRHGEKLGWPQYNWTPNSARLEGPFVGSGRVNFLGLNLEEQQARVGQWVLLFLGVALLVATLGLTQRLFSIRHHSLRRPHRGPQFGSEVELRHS
Description: as §1, §2
as §3, with “(for aminopeptidase) and analogous processes.” left out

Aminopeptidase [7] = assay: Inhibition of aminopeptidase from bovine longitudinal muscle (substrate enkephalin); details: for IC50: aminopeptidase; for inhibition rate, Aminopeptidase: principal ingredient 1 μg/1 ml
Description: as §1, §2, §3

aminopeptidase [8] = assay: Inhibition of aminopeptidase of human cerebrospinal fluid (substrate enkephalin); details: for IC50: aminopeptidase eluted from human cerebrospinal fluid, substrate enkephalin; for inhibition effect on aminopeptidase: dialyzed human cerebrospinal fluid, 2 mg/ml
Description: (§4) A human cerebrospinal fluid was dialyzed by using 25 mM of tris-HCl buffer having a pH of 7.0 for 5 hrs. Enkephalin-degrading enzymes contained therein were analyzed according to a radioautography or the like. In the cerebrospinal fluid, the aminopeptidase activity was the strongest. Further, dipeptidylaminopeptidase and dipeptidylcarboxypeptidase activites which were non-selective for bestatin were also recognized.
(§5) The compound (3) and (6) of the present invention were allowed to act on the respective enzymes.
On the other hand, the aminopeptidase alone was eluted according to the cellulose column chromatography using a NaCl solution as a eluant. IC50 values of the above two compounds on the aminopeptidase were determined according to Porapak Q column process and high-performance liquid chromatography using enkephalin as the substrate. The results were compared with those of Arphamenin A and B the inhibitive actions of which on the enkephalin-degrading enzyme have been known.

carboxypeptidase [9] = assay: Inhibition of carboxypeptidase of human cerebrospinal fluid; details: dialyzed human cerebrospinal fluid; 2 mg/ml
Description: as §4, §5

[10] = biological target: dipeptidylcarboxypeptidase (Homo sapiens, UniProt P12821); assay: Inhibition of dipeptidylcarboxypeptidase of human cerebrospinal fluid; details: dialyzed human cerebrospinal fluid; 2 mg/ml
dipeptidylcarboxypeptidase, sequence (P12821 30-1232): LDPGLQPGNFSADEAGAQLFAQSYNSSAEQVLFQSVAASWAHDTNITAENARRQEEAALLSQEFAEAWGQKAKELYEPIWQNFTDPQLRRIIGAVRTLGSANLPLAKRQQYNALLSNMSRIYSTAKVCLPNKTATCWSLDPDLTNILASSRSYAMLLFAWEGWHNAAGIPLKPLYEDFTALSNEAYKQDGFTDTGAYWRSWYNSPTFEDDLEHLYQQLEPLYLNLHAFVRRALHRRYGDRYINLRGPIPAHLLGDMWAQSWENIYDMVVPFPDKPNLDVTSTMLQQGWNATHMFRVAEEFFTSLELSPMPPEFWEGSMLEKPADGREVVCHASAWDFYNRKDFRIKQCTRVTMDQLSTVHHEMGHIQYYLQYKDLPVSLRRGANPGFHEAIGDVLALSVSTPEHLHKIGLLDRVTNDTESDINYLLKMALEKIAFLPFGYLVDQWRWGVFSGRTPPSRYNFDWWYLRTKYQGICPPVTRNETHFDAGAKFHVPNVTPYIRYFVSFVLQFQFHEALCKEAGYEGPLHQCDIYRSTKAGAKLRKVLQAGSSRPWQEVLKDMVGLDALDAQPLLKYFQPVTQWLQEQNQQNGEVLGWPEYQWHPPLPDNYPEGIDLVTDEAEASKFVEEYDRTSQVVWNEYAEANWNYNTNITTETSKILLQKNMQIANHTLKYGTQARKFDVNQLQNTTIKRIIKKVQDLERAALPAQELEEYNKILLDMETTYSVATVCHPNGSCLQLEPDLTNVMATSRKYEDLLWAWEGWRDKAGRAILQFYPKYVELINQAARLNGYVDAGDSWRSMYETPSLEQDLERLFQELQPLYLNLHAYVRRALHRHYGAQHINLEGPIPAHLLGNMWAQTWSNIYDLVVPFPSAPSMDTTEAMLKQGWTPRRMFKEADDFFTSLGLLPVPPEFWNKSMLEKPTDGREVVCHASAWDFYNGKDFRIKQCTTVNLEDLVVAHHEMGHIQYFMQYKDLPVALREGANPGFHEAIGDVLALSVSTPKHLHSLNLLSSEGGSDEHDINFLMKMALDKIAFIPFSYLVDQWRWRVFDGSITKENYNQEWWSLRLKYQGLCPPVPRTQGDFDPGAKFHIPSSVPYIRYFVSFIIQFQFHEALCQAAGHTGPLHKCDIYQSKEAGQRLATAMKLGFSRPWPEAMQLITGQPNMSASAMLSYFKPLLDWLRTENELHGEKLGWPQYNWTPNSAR
Description: as §4, §5

dipeptidylaminopeptidase [11] = biological target: T3, dipeptidylaminopeptidase (Homo sapiens, UniProt Q9NY33); assay: Inhibition of dipeptidylaminopeptidase of human cerebrospinal fluid; details: dialyzed human cerebrospinal fluid; 2 mg/ml
T3 construct: A human cerebrospinal fluid was dialyzed; from tissue; host or cells: human cerebrospinal fluid, dialyzed
T3 sequence (Q9NY33 2-737 limits assumed): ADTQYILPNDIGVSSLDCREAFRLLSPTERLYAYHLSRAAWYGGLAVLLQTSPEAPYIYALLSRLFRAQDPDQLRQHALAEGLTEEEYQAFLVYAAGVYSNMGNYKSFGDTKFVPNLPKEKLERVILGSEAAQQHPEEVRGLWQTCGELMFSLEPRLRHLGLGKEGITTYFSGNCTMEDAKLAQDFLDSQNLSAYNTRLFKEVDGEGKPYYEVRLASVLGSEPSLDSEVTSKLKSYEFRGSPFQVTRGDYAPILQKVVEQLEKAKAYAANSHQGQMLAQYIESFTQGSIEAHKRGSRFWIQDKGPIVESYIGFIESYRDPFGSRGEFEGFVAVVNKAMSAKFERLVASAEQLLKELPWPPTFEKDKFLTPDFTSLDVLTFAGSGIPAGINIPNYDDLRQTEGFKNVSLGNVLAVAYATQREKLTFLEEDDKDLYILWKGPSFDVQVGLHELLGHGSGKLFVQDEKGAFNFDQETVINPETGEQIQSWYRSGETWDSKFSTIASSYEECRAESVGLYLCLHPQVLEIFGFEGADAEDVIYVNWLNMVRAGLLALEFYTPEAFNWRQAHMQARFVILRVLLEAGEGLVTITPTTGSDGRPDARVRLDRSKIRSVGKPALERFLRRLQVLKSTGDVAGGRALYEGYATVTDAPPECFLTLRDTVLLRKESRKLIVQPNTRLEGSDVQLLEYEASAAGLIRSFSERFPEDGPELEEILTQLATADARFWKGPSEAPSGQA
Description: as §4, §5

In the case of `O=C(O)C[CH2][Ge](=[S])[S][Ge](=[S])[CH2]CC(=O)O` [Compound (1)], the “inhibition rate, Aminopeptidase” value (Aminopeptidase [1]) is reported as 87.8% and the “inhibition rate, Dipeptidylaminopeptidase” value (Dipeptidylaminopeptidase [2]) is reported as 98.2%.
With `C[CH](CC(=O)O)[Ge](=[S])[S][Ge](=[S])[CH](C)CC(=O)O` (stereo not drawn) [Compound (2)] the “inhibition rate, Carboxypeptidase” value (Carboxypeptidase [3]) was 6.2%, the “inhibition rate, Aminopeptidase” value (Aminopeptidase [1]) was 87.6% and the “inhibition rate, Dipeptidylaminopeptidase” value (Dipeptidylaminopeptidase [2]) was 97.9%. For the same compound, the IC50 [4] was 168 µM, the IC50 [5] was 78 µg/mL and the IC50 [6] was 159 µM.
`O=C(O)C[CH](c1ccccc1)[Ge](=[S])[S][Ge](=[S])[CH](CC(=O)O)c1ccccc1` (stereo not drawn) [Compound (6)] was tested, and the IC50 (Carboxypeptidase [3]; carboxypeptidase) was 275 µg/mL, the “inhibition rate, Carboxypeptidase” value (Carboxypeptidase [3]) was 89.8% and the IC50 (Aminopeptidase [7]) was 19 µg/mL. The “inhibition rate, Aminopeptidase” value (Aminopeptidase [7]) was 97.0%, the IC50 (aminopeptidase [8]) was 440 μg/m and the “inhibition effect on aminopeptidase” value (aminopeptidase [8]) was “exhibited inhibition effects”. The “inhibition effect on carboxypeptidase” value (carboxypeptidase [9]) was “exhibited inhibition effects”, the “inhibition effect on dipeptidylcarboxypeptidase” value [10] was “exhibited inhibition effects” and the IC50 [6] was 185 µM.
With `CC([CH2][Ge](=[S])[S][Ge](=[S])[CH2]C(C)C(=O)O)C(=O)O` (stereo not drawn) [Compound (3)] the “inhibition effect on dipeptidylaminopeptidase” value (dipeptidylaminopeptidase [11]) was “exhibited inhibition effects”, the “inhibition rate, Aminopeptidase” value (Aminopeptidase [1]) was 85.6% and the “inhibition rate, Dipeptidylaminopeptidase” value (Dipeptidylaminopeptidase [2]) was 97.7%. For the same compound, the IC50 (aminopeptidase [8]) was 450 μg/m, the “inhibition effect on aminopeptidase” value (aminopeptidase [8]) was “exhibited inhibition effects” and the “inhibition effect on dipeptidylcarboxypeptidase” value [10] was “exhibited inhibition effects”.
In the case of `C[C](C)(CC(=O)O)[Ge](=[S])[S][Ge](=[S])[C](C)(C)CC(=O)O` [Compound (5)], the IC50 (Aminopeptidase [7]) is reported as 110 µg/mL and the “inhibition rate, Aminopeptidase” value (Aminopeptidase [7]) is reported as 88.0%.
With `N=C(N)NCCCC(N)C(=O)CC(Cc1ccccc1)C(=O)O` (stereo not drawn) [Arphamenine A, reference compound] the IC50 (aminopeptidase [8]) was 810 μg/m.
`N=C(N)NCCCC(N)C(=O)CC(Cc1ccc(O)cc1)C(=O)O` (stereo not drawn) [Arphamenine B, reference compound] showed an IC50 (aminopeptidase [8]) of 650 μg/m.

From patent US4748187A, “Opioid peptide-degrading enzyme inhibitor with a germanium compound” (Asai Germanium Research Institute, priority 1983, dated 1988)
